Legend:
[1] = human, in vivo
Experimental: Patient 1: a person, suffering from diabetic leg complications and a non-healing wound on the minimus, indicated for amputation. The patient was treated with the composition as in the example 5, TI.1-8HC, 3 grams per day, for 20 days. The treatment was supported with suitable acupuncture protocol, and topical antibiotic preparations.
Patient 2: a person, suffering from diabetes, a completer of the clinical trial similar to the described in the Example 3, proceeded with the open-label extension for further 3 months and achieved a 24% reduction in the fasting glucose levels. Thereafter the dose was increased to 1500 mg twice daily, and after one month a complete control over fasting glucose level has been achieved (below 140 mg/dL). Low-carbohydrate diets was prescribed to maintain the achievement. The patient presented a year after with fasting blood glucose of over 160; requested and was prescribed raw fan shi liu ye 10000 mg per day (as decoction—10 minutes boiling, chilling, and consumption). After 10 days the fasting blood glucose declined to between 120 and 130 mg/dL, but the patient suffered from fatigue and reverted to the experimental chocolate.
Patient 3: a person, presented during COVID-19 pandemics with fasting blood glucose of 150 mg/dL, HA1C of 7.4, with anxiety and uncontrolled eating. […]

L6 myotubes = assay: Glucose uptake colorimetric assay (2-deoxy glucose) in differentiated L6 cells; type: cell-based; conditions: insulin challenge versus serum-free control (FIG. 2)
Experimental: The objective of the study was to evaluate the anti-diabetic action of herbal blends. The ability to enhance glucose consumption by skeletal muscle was evaluated in L6 myotubes model in comparison to various control groups, including two known traditional reference formulae.
Cell culturing, materials preparations and all treatments were performed under sterile conditions. The L6 Cells culture medium comprised A-MEM supplemented with 100 U/ml penicillin and 100 μg/ml streptomycin and 10% FBS, sterilely filtered. The L6 cells differentiation medium comprised α-MEM supplemented with 100 U/ml penicillin and 100 μg/ml streptomycin and 2% FBS, sterilely filtered. […]
Glucose uptake assay was performed using Glucose Uptake Colorimetric Assay Kit in the non-radioactive 2-deoxy glucose derivative, according to the manufacturers' instructions in KRBH buffer, on differentiated cells. Colorimetric data was quantified by the use of a standard curve. Glucose uptake in the control (naïve cells), vehicle (DDW), and insulin-treated cells was measured.
Glucose uptake assay was then performed for the two concentrations of tested items: at 50 μg/mL and at 5 μg/mL. […] It can be readily appreciated from the FIG. 3 that the composition of eight ingredients composition was equipotent to QWS and BHT (denoted as “c1” and c2”) at the concentration of 50 μg/mL. […]

Substance	tolerability of treatment over extended time [1]	glucose uptake by muscle cells (L6 myotubes)
Psidium guajava L. [fan shi liu ye]	could not be well tolerated	–
insulin	–	significantly increased

From US20230405071A1, “COMPOSITIONS AND METHODS USEFUL FOR MANAGEMENT OF BLOOD SUGAR” (SOLVEAT FUNCTIONAL NUTRITION SOLUTIONS LTD., priority 2020, published 2023)
